{
  "source": "patent US20190111059A1",
  "about": "“COMPOSITIONS AND METHODS FOR TREATING AUTISM SPECTRUM DISORDER” (Marinus Pharmaceuticals, Inc., priority 2017, published 2019)",
  "key": {"[1]": {"system": "children with ASD and low CSF folate concentrations", "details": "high-dose; case reports and series; cited from earlier work"}, "[2]": {"system": "children with non-syndromic autism spectrum disorder (ASD) and language impairment", "assay": "Randomized placebo-controlled trial: Behavioral Assessment System for Children (BASC)", "format": "in vivo, human", "details": "for BASC Internalizing problems, estimated effect: calcium salt", "protocol": "The Behavioral Assessment System for Children 2nd Edition (“BASC”) ranges from 185 to 306 items and is validated in ASD. Each item is rated 0 to 3 with higher scores indicating greater severity. Standardized T-Scores (mean 50, standard deviation 10) range 20-120 for externalizing, internalizing and behavioral symptoms and 10-90 for adaptive skills. This two-arm double-blind randomized placebo-controlled parallel study with a 1:1 allocation was performed at Arkansas Children's Research Institute (Little Rock, Ark., USA) from 4 Jun. 2012 to 22 Nov. 2013. Parent and teacher questionnaires were requested at baseline and 6 and 12 weeks after starting treatment. Parents were asked to deliver baseline questionnaires to teachers or therapists. After the first visit, questionnaires were mailed to the parents and teachers at least 1 week prior to the target date of completion. Parents were asked to bring the completed teacher and parent 12-week questionnaires to the final assessment. Other questionnaires were returned in a preaddressed postage-paid envelope. The target dose of the intervention (INN: DL folinic acid calcium salt; USAN: leucovorin calcium) was 2 mg kg^−1 per day (maximum 50 mg per day) in two equally divided doses with half of the target dose given during the first 2 weeks. Dye-free, milk-product-free, vegetarian capsules were provided in three strengths (5, 10 and 25 mg) by Lee Silsby Compounding Pharmacy (Cleveland Heights, Ohio, USA). Certificate of analysis was provided for each capsule strength by an independent analytical service (Eagle Analytical Services, Houston, Tex., USA) for each batch of capsules produced. In all cases, potency was at least 99%. Secondary outcomes. Secondary outcome measures included the Ohio Autism Clinical Impression Scale (OACIS), Vineland Adaptive Behavior Scale 2nd Edition (VABS) Survey Interview Form and several questionnaires. Parents and teachers were asked to complete the Aberrant Behavior Checklist (ABC), Social Responsiveness Scale (SRS) and Behavioral Assessment System for Children 2nd Edition (BASC). Only parents were asked to complete the Autism Impact Measure (AIM) and Autism Symptoms Questionnaire (ASQ). Secondary outcome measures were analyzed using the mixed-model regression. Because of the large number of secondary outcomes, correction for multiple comparisons was conducted using the false discovery rate."}, "[3]": {"system": "children with ASD who were positive for at least one FRAA", "assay": "Controlled open-label study of high-dose folinic acid (Example 1)", "format": "in vivo, human", "details": "2 mg kg^−1 per day in two divided doses, maximum 50 mg per day"}, "[4]": {"details": "vs placebo, mixed-model regression, lower = better"}},
  "note": "Counter-ions that a name gives are not always drawn.",
  "data": [
    {"smiles": "Nc1nc2c(c(=O)[nH]1)N(C=O)C(CNc1ccc(C(=O)N[C@@H](CCC(=O)O)C(=O)O)cc1)CN2", "note": "(mixture of isomers) [Folinic acid, DL folinic acid calcium salt]", "values": [
      {"measurement": "Symptoms in children with ASD and low CSF folate concentrations", "setting": "[1]", "value": "markedly improves symptoms"},
      {"measurement": "BASC Adaptive skills, 12-week assessment mean", "setting": "[2]; 2 mg kg^−1 per day, 12 weeks, baseline 24.5, higher = better", "value": 27.8, "unit": "T-Scores"},
      {"measurement": "BASC Internalizing problems, 12-week assessment mean", "setting": "[2]; 2 mg kg^−1 per day, 12 weeks, baseline 49.3, lower = better", "value": 43.1, "unit": "T-Scores"},
      {"measurement": "BASC Externalizing problems, 12-week assessment mean", "setting": "[2]; 2 mg kg^−1 per day, 12 weeks, baseline 60.9, lower = better", "value": 57.7, "unit": "T-Scores"},
      {"measurement": "BASC Behavior problems, 12-week assessment mean", "setting": "[2]; 2 mg kg^−1 per day, 12 weeks, baseline 71.1, lower = better", "value": 65.3, "unit": "T-Scores"},
      {"measurement": "BASC Adaptive skills, estimated effect", "setting": "[2]; vs placebo, mixed-model regression, higher = better", "value": 0.4, "unit": "T-Scores"},
      {"measurement": "BASC Behavior problems, estimated effect", "setting": "[2]; [4]", "value": 0.1, "unit": "T-Scores"},
      {"measurement": "BASC Externalizing problems, estimated effect", "setting": "[2]; [4]", "value": "−0.1", "unit": "T-Scores"},
      {"measurement": "BASC Internalizing problems, estimated effect", "setting": "[2]; [4]", "value": "−1.1", "unit": "T-Scores"},
      {"measurement": "BASC Internalizing problems, estimated effect", "setting": "[2]; vs placebo, mixed-model regression, lower = better, listed as folinic acid", "value": "significantly improved"},
      {"measurement": "Adverse effects", "setting": "[3]", "value": "very few adverse effects reported"},
      {"measurement": "Improvements in verbal communication, receptive and expressive language, attention, and stereotypical behavior", "setting": "[3]", "value": "significant improvements"}
    ]}
  ]
}
